Measurements from patent publication US10889555B2, “Sulfonamide compound or salt thereof” (Taiho Pharmaceutical Co., Ltd., priority 2016, dated 2021).

These compounds were tested on HCC 1806 cells (assay: Cell proliferation inhibitory effect on human breast cancer cell line (crystal violet, 72 hours)). Conditions: Homo sapiens, HCC1806, 72 h, read-out: Cell growth suppression IC50.
Assay type: cell-based
Outline: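 Cells were seeded at 2,000/well in RPMI-1640 with 10% FBS and grown 1 day, then exposed to compound for 72 h at 37° C, 5% CO2. After glutaraldehyde fixation and 0.05% crystal violet staining, extracted dye was read at 540 nm. IC50 (μM) came from growth inhibition relative to untreated and cell-free wells.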

IC50 [nM]	SMILES
400	COC(=O)c1nc(S(=O)(=O)N[C@H](c2n[nH]c(=O)o2)[C@H](C)c2c(F)ccc(C)c2C)ccc1Cl [Example 109, methyl 3-chloro-6-(N-((1S,2R)-2-(6-fluoro-2,3-dimethylphenyl)-1-(5-oxo-4,5-dihydro-1,3,4-oxadiazol-2-yl)propyl)sulfamoyl)picolinate]
400	C[C@H](c1c(F)ccc2ccccc12)[C@H](NS(=O)(=O)c1ccc(Br)cc1C(N)=O)c1n[nH]c(=O)o1 [Example 15, 5-bromo-2-(N-((1S,2R)-2-(2-fluoronaphthalen-1-yl)-1-(5-oxo-4,5-dihydro-1,3,4-oxadiazol-2-yl)propyl)sulfamoyl)benzamide]
770	Cc1ccc(F)c([C@@H](C)[C@H](NS(=O)(=O)c2ccc(F)c3c2OCCC3(C)O)c2n[nH]c(=O)o2)c1C (single isomer, unassigned) [Example 224B]
590	Cc1ccc(F)c([C@@H](C)[C@H](NS(=O)(=O)c2ccc(Cl)c3c2OCCC3N)c2n[nH]c(=O)o2)c1C (stereo partly drawn) [Example 278, 4-amino-5-chloro-N-((1S,2R)-2-(6-fluoro-2,3-dimethylphenyl)-1-(5-oxo-4,5-dihydro-1,3,4-oxadiazol-2-yl)propyl)chroman-8-sulfonamide]
350	CCn1cc(-c2ccc(F)c([C@@H](C)[C@H](NS(=O)(=O)c3ccc(Cl)cc3OC)c3n[nH]c(=O)o3)c2C)cn1 [Example 310, 4-chloro-N-((1S,2R)-2-(3-(1-ethyl-1H-pyrazol-4-yl)-6-fluoro-2-methylphenyl)-1-(5-oxo-4,5-dihydro-1,3,4-oxadiazol-2-yl)propyl)-2-methoxybenzenesulfonamide]
930	COc1cc(Cl)ccc1S(=O)(=O)N[C@H](c1n[nH]c(=O)o1)[C@H](C)c1c(F)ccc(-c2ccc(N3CCOCC3)nc2)c1C [Example 315, 4-chloro-N-((1S,2R)-2-(6-fluoro-2-methyl-3-(6-morpholinopyridin-3-yl)phenyl)-1-(5-oxo-4,5-dihydro-1,3,4-oxadiazol-2-yl)propyl)-2-methoxybenzenesulfonamide]
750	C[C@H](c1c(F)ccc2ccccc12)[C@H](NS(=O)(=O)c1ccc(Cl)c2c1OCCC2F)c1n[nH]c(=O)o1 (mixture of isomers) [Example 292, 5-chloro-4-fluoro-N-((1S,2R)-2-(2-fluoronaphthalen-1-yl)-1-(5-oxo-4,5-dihydro-1,3,4-oxadiazol-2-yl)propyl)chroman-8-sulfonamide]
410	Cc1ccc(F)c([C@@H](C)[C@H](NS(=O)(=O)c2cc(C(C)(C)O)ccc2C(N)=O)c2n[nH]c(=O)o2)c1C [Example 197, 2-(N-((1S,2R)-2-(6-fluoro-2,3-dimethylphenyl)-1-(5-oxo-4,5-dihydro-1,3,4-oxadiazol-2-yl)propyl)sulfamoyl)-4-(2-hydroxypropan-2-yl)benzamide]
230	Cc1ccc(F)c([C@@H](C)[C@H](NS(=O)(=O)c2ccc(Cl)c(C(=O)N(C)C)n2)c2n[nH]c(=O)o2)c1C [Example 253, 3-chloro-6-(N-((1S,2R)-2-(6-fluoro-2,3-dimethylphenyl)-1-(5-oxo-4,5-dihydro-1,3,4-oxadiazol-2-yl)propyl)sulfamoyl)-N,N-dimethylpicolinamide]
760	Cc1c(Br)ccc(F)c1[C@@H](C)[C@H](NS(=O)(=O)c1ncc(Cl)cc1C(N)=O)c1n[nH]c(=O)o1 [Example 264, 2-(N-((1S,2R)-2-(3-bromo-6-fluoro-2-methylphenyl)-1-(5-oxo-4,5-dihydro-1,3,4-oxadiazol-2-yl)propyl)sulfamoyl)-5-chloronicotinamide]

Same assay, conditions: read-out: Cell growth suppression IC50

SMILES	IC50 [nM]
[2H]C([2H])([2H])C1(O)CCOc2c(S(=O)(=O)N[C@H](c3n[nH]c(=O)o3)[C@H](C)c3c(F)ccc(C)c3C)ccc(Cl)c21 (single isomer, unassigned) [Example 200B]	460
COc1c(S(=O)(=O)N[C@H](c2n[nH]c(=O)o2)[C@H](C)c2c(F)ccc(C)c2C)ccc(Cl)c1C(C)O (single isomer, unassigned) [Example 208B]	50
